This note sets out measurements from US20230043678A1, “USE OF 5-METHYLTETRAHYDROFOLATE” (priority 2019, published 2023).

One data set deals with fetal rat heart. Put plainly: Effects of homocysteine on fetal rats, heart slices (Example 7). Format: in vivo, SD rats. How it is done:
In order to investigate an effect of homocysteine on the fetal heart, SD rats were selected, male and female rats were mated in a cage at a ratio of 1:1 overnight, a vaginal plug was checked the next morning, a day when the vaginal plug was found was regarded as day 0 of pregnancy, and pregnant mice were fed alone. A 1% homocysteine (HCY) solution was used, an injection volume was calculated according to an injection volume of 1 ml/100 g, a dose was (100 mg/kg/d), on the seventh day of pregnancy, the pregnant mice were intraperitoneally injected once a day until the 17th day of pregnancy and injected once on the 19th day of pregnancy, no fluid was withdrawn during each injection, the pregnant mice were subjected to chloral hydrate anesthesia on the 20th day of pregnancy, and a fetus was obtained by cesarean section. High-dose HCY model pregnant mice were investigated by the same method as above, the dose was 200 mg/kg/d and the other conditions were the same. Fetal rats were dissected, the heart was taken and sliced for observation, and the results were as follows.

The subject of data set [1] is zebrafish embryos. How it is done:
Each experiment was conducted in triplicate. Zebrafish embryos were administrated at 2 h post fertilization (2 hpf) and termination was conducted at 72 hpf. The number of deaths in each group was recorded at 8, 24, 48 and 72 hpf. No food was fed during a dosing period, and the dead embryos were cleaned up in time.

In data set [2] the test system is transcription factors (Nkx2.5, amhc, vmhc, hand2, has2, mef2a, mef2c, bmp2b, ephrinB2, ephB4) in zebrafish embryos. Put plainly: qRT-PCR expression of transcription factors during development of zebrafish embryos (Example 4). It is filed as in vivo. The conditions noted are these: 8 mM L-5-MTHF-Ca, 24 and 48 hpf. How it is done: In order to explore an effect of folic acid on epigenetics during development of the zebrafish embryos, the zebrafish embryos at different developmental stages were collected for testing. […] A fluorescent dye SYBR Green was used in the qRT-PCR experiment. The qRT-PCR was conducted according to the instructions of an SYBR Green qPCR Master Mix kit and a detection was conducted on an ABI (HT 7900) PCR instrument. […] An expression of β-actin was used as an internal reference and relative expression levels of other genes were calculated by a ΔΔCt method.
Background: Quantitative PCR measures a nucleic acid by following its amplification.

Data set [3] concerns zebrafish embryos. The following applies: 30 mM HCHO + 10 mM L-5-MTHF-Ca.
The next data set has as its system heart of fetal mice. Put plainly: Effects of folic acid and 5-methyltetrahydrofolate on heart development of fetal/neonatal mice, histology (Example 10). How it is done: 75 7-week-old female C57BL/6J mice and 25 8-week-old male C57BL/6J mice were provided by Shanghai Lingchang Biotechnology Co., Ltd. with a certificate number of SCXK (Shanghai) 2018-0003. […] The female mice were randomly divided into 5 groups according to body weight: a solvent control group, a folic acid (151.66 μg/kg) group, a folic acid (303.32 μg/kg) group, a calcium 5-methyltetrahydrofolate (converted to folic acid, 151.66 μg/kg) group and a calcium 5-methyl tetrahydrofolate (converted to folic acid, 303.32 μg/kg) group. 1.1275 unit mass of the calcium 5-methyltetrahydrofolate equaled to 1 unit mass of the folic acid.
15 mice were in each group and numbered by a toe clipping method. The mice were intragastrically administrated once a day on the second day after grouping. One week after the pre-administration, male and female mice were caged at a ratio of […], a vaginal plug was observed every day from the next day, and a day when the vaginal plug was seen was recorded as day 0.5 of pregnancy. After 14 days of caging, the female mice stopped the administration, the male mice were removed, and the pregnant female mice were fed alone until litter.
After the detection, thoracic and abdominal cavities of the mice were dissected, cardiac morphology and beating were observed under a stereoscopic microscope (SMZ168, Motic, Xiamen, Fujian, China), and photographs and video recordings were taken (Motic Image Plus 3.0, Motic, Xiamen, Fujian, China). The mice were sacrificed and the hearts, the livers, the kidneys and the lungs were harvested. The hearts and the livers of the neonatal mice were selected from each group and fixed with 4% paraformaldehyde, the fixed hearts and livers were embedded in paraffin, the embedded hearts and livers were sliced and the slices were stained with H&E. A half of the other tissues were immersed in RNA later for fixation and the other half were directly immersed in liquid nitrogen and frozen for a subsequent experiment.
1-day-old neonatal mice were sacrificed, the hearts were taken and fixed with 4% paraformaldehyde, the fixed hearts were embedded in paraffin, the embedded hearts were sliced, the slices were stained with H&E and pictures were taken under a normal microscope.

The test system of data set [4] is zebrafish embryos. The conditions noted are these: in vivo. As to the method: A table was listed below for details.
5-Selected concentrations of methyltetrahydrofolate in the experiment were recorded in the table.

Data set [5] deals with zebrafish embryos. The source holds these as a separate data set.
Protocol: (§1) Transgenic zebrafish (fli-1:EGFP) were from the Model Animal Research Center of Nanjing University. Adult zebrafish aged less than 1 were used for experiment and fed at a water pH value of 7±0.2, a temperature around 28° C. and a ratio of illumination to darkness of 14 h:10 h, and with Artemia salina eggs twice a day. Three zebrafish, one female, two males, were placed in a spawning box the night before and eggs were collected the next morning. Fish eggs were placed in an embryo culture medium (prepared with 0.2 g/L of sea salt) and cultured at 28° C. […] Dead embryos were cleaned up in time. A phenotype of malformation was observed, the number of all abnormal zebrafish where the malformation was present was recorded and a malformation rate and a rescue rate of each group were calculated. Morphological defects, a heart rate, cardiac morphology and other indicators were observed and evaluated by an SMZ745T inverted stereomicroscope.
Data set [6] concerns zebrafish embryos. The conditions noted are these: 6 mM FA + 10 mM L-5-MTHF-Ca.
Protocol: Transgenic zebrafish (fli-1:EGFP) were from the Model Animal Research Center of Nanjing University. Adult zebrafish aged less than 1 were used for experiment and fed at a water pH value of 7±0.2, a temperature around 28° C. and a ratio of illumination to darkness of 14 h:10 h, and with Artemia salina eggs twice a day. Three zebrafish, one female, two males, were placed in a spawning box the night before and eggs were collected the next morning. Fish eggs were placed in an embryo culture medium (prepared with 0.2 g/L of sea salt) and cultured at 28° C. […] Dead embryos were cleaned up in time. Each experiment was conducted in triplicate. […] A phenotype of malformation was observed, the number of all abnormal zebrafish where the malformation was present was recorded and a malformation rate and a rescue rate of each group were calculated. Morphological defects, a heart rate, cardiac morphology and other indicators were observed and evaluated by an SMZ745T inverted stereomicroscope.
Data set [7] deals with zebrafish embryos. This is another data set of the same source.
Protocol: Transgenic zebrafish (fli-1:EGFP) were from the Model Animal Research Center of Nanjing University. Adult zebrafish aged less than 1 year were used for experiment and fed at a water pH value of 7±0.2, a temperature around 28° C. and a ratio of illumination to darkness of 14 h:10 h, and with Artemia salina eggs twice a day. Three zebrafish, one female, two males, were placed in a spawning box the night before and eggs were collected the next morning. Fish eggs were placed in an embryo culture medium (prepared with 0.2 g/L of sea salt) and cultured at 28° C.
Zebrafish embryos were cultured in 24-well plates with 10 embryos per well at 2 hpf in a dosing manner, drug solutions of the above concentrations in the table were separately added, termination was conducted at 8 hpf, and the embryos were washed and transferred to an egg solution for continuous culture to 72 hpf. Dead embryos were cleaned up in time. Each experiment was conducted in triplicate.
A phenotype of malformation was observed, the number of all abnormal zebrafish where the malformation was present was recorded and a malformation rate and a rescue rate of each group were calculated. Morphological defects, a heart rate, cardiac morphology and other indicators were observed and evaluated by an SMZ745T inverted stereomicroscope.
The test system of data set [8] is zebrafish embryos. Put plainly: Teratogenic effect of folic acid on zebrafish embryos (Example 3).
Protocol: as §1
Where [9] appears, read: Group D: calcium 5-methyltetrahydrofolate (converted to folic acid, 151.66 μg/kg) intragastric.
Setting [10] is: Group E: calcium 5-methyltetrahydrofolate (converted to folic acid, 303.32 μg/kg) intragastric.

Read-outs that look alike come from different tables or passages of the source.

`N[C@@H](CCS)C(=O)O` [HCY, homocysteine]: the “fetal rat heart histology” value with fetal rat heart (high-dose HCY 200 mg/kg/d intraperitoneal to pregnant rats) was “led to red staining of muscle cytoplasm of the fetal rats”; with fetal rat heart (low-dose HCY 100 mg/kg/d intraperitoneal to pregnant rats), “led to widening of myocardial trabeculae in fetal rats and atria was filled with red blood cells”.
Turning to “Calcium 5-Methyltetrahydrofolate [L-5-MTHF-Ca]”, the embryo survival rate result in the data set on zebrafish embryos [1] (10 mM L-5-MTHF-Ca, dosed 2 hpf to 72 hpf) is given as “did not affect an embryo survival rate”. For the same compound, in the data set on zebrafish embryos [1] (10 mM, 48 hpf, vs control group), the “heart rate of zebrafish embryos” value is listed as “no difference in the heart rate”. Besides, the “heart shape and lower intestinal network blood vessels” value was “the heart in each group had a normal shape and the lower intestinal network blood vessels developed normally” in the data set with zebrafish embryos [1] (10 mM, 72 hpf); “normal heart shape and normal development of lower intestinal network blood vessels” with zebrafish embryos [3] (72 hpf); “normal heart shape and normal development of lower intestinal network blood vessels” with zebrafish embryos [8] (10 mM L-5-MTHF-Ca, 72 hpf). The “body length of zebrafish embryos” value in the data set with zebrafish embryos [1] (10 mM, 72 hpf, vs control group) is listed as “no difference”. Moreover, the “expressions of the various genes vs normal control” value in [2] is given as “did not affect the expressions of the various genes”. Further, the “pericardium edema and heart rate (48 hpf), body length (72 hpf)” value in the data set on zebrafish embryos [3] is “had no effect on the pericardium edema, the heart rate and the body length of the zebrafish”. Further, the “survival rate of embryos, rescue” value with zebrafish embryos [3] is “can rescue an effect of the 30 mM HCHO on a survival rate of the embryos”; in the data set on zebrafish embryos [4] it was “did not rescue an effect of the 2 and 4 mM Pb(NO3)2 on a survival rate of the embryos”; with zebrafish embryos [5] (1.5 mM MTX + 10 mM L-5-MTHF-Ca) it was “no significant difference from that of a control group”; in the data set on zebrafish embryos [6], “can rescue an effect of the 6 mM FA on a survival rate of the embryos”. Moreover, the embryo development entry in the data set on zebrafish embryos [3] (8 hpf) and with zebrafish embryos [6] (8 hpf) was “delayed development of the zebrafish embryos” throughout. The “congenital heart disease in fetal mice” value in the data set with heart of fetal mice (5-methyltetrahydrofolate group) was “no congenital heart disease is found”. In addition, the Development delay in the data set with heart of fetal mice (setting [9]) and in the data set on heart of fetal mice (setting [10]) was 0 in each case. The Malformation cases with heart of fetal mice (setting [9]) and in the data set on heart of fetal mice (setting [10]) was 0 throughout. Besides, the Sparse myocardial trabeculae in the data set on heart of fetal mice (setting [9]) and with heart of fetal mice (setting [10]) was 0 each time. Further, the Ventricular defects/septal defects with heart of fetal mice (setting [9]) and in the data set on heart of fetal mice (setting [10]) was 0 in each case. Moreover, in the data set on heart of fetal mice (low-dose and high-dose methyltetrahydrofolate groups), the “heart slices (H&E) of 1-day-old neonatal mice” value is reported as “had intact myocardium”. For the same compound, in the data set on zebrafish embryos [4], the “10 s heart rate (48 hpf), body length and malformation (72 hpf), rescue” value is “could rescue malformed phenotypes of the bradycardia, the shortened body length and abnormally curved bodies”. The “rescue of embryonic development malformations” value was “could rescue embryonic development malformations induced by 2 and 4 mM Pb(NO3)2” in the data set with zebrafish embryos [4]; “could rescue embryonic development malformations induced by 1.5 mM MTX” in the data set with zebrafish embryos [5] (1.5 mM MTX + 10 mM L-5-MTHF-Ca). The embryo phenotype entry in the data set with zebrafish embryos [4] (zebrafish) was “did not lead to obvious embryonic development delay, malformation and death”; in the data set on zebrafish embryos [6] (24 hpf), “alleviated the malformation”; in the data set on zebrafish embryos [6] (48 hpf), “led to pericardium edema, dyspigmentation, and intersegmental vascular hypoplasia of zebrafish”; with zebrafish embryos [6] (72 hpf), “led to developmental disorders of lower intestinal network blood vessels of the zebrafish”. For the same compound, the “pericardium edema and 10 s heart rate (48 hpf), body length (72 hpf), rescue” value in the data set on zebrafish embryos [4] (zebrafish) is “could rescue malformed phenotypes of the pericardium edema, the bradycardia and the shortened body length of the zebrafish to a certain extent”; with zebrafish embryos [5] (1.5 mM MTX + 10 mM L-5-MTHF-Ca) it was “could rescue malformed phenotypes of the pericardium edema, the bradycardia and the shortened body length”. The compound also registered a Malformation rate with zebrafish embryos [5] (1.5 mM MTX after adding L-5-MTHF-Ca (10 mM)) of 10%. Besides, the “10 s heart rate (48 hpf) and body length (72 hpf), rescue” value in the data set with zebrafish embryos [6] was “could rescue malformed phenotypes of the bradycardia and the shortened body length”. The “pericardium edema, rescue” value is given as “could not rescue the pericardium edema” in the data set with zebrafish embryos [6] (48 hpf) and “had no effect on relieving pericardium edema” in the data set on zebrafish embryos [7] ([…] EtOH + 10 mM L-5-MTHF-Ca, 48 hpf). In addition, in the data set on zebrafish embryos [7] (0.6% EtOH + 10 mM L-5-MTHF-Ca, 48 hpf), the “rate of pericardium edema, rescue” value was “could reduce a rate of pericardium edema”. The “heart rate, rescue” value in the data set with zebrafish embryos [7] (0.9% and […] EtOH + 10 mM L-5-MTHF-Ca, 48 hpf) is recorded as “could relieve bradycardia”. For the same compound, the “survival rate, rescue” value in the data set on zebrafish embryos [7] ([…] EtOH + 10 mM L-5-MTHF-Ca) is listed as “could rescue the survival rate”. Further, in the data set with zebrafish embryos [7] ([…] EtOH + 10 mM L-5-MTHF-Ca, 72 hpf), the “lower intestinal network blood vessels, rescue” value was “failed to ameliorate the defect”. Also, in the data set with zebrafish embryos [7] (high concentration ([…]) of EtOH + 10 mM L-5-MTHF-Ca), the “body length, rescue” value is on record as “relieve a shortened body length”. Also, the “survival rate of zebrafish” value in the data set with zebrafish embryos [8] (10 mM L-5-MTHF-Ca in 20 mM NaHCO3, 2-72 hpf) is “did not affect the survival rate of zebrafish”. In addition, the embryo coverage result with zebrafish embryos [8] (10 mM L-5-MTHF-Ca, 8 hpf) was “covered completely”.
